Test results as given in the supplement of paper PMC10627819.

How the values were obtained:
B. subtilis 168 = test: Bliss interaction score (quartile over a dose matrix) (fitness difference); higher = more antagonism (negative = synergy)
Method in brief: (§1)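 Quartiles summarise the Bliss score over technical, biological and donor/recipient replicates, where the score is observed minus expected fitness under a product model. Expected fitness uses single-drug values inferred from combination data. Fitness is OD595 at entry into stationary phase over the plate's robust no-drug mean, capped at 1.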

S. pneumoniae D39V [1] = test: as above
Method in brief: as §1

S. aureus DSM 20231 [2] = test: as above
Method in brief: as §1

S. aureus Newman [3] = test: as above
Method in brief: as §1

S. pneumoniae D39V [4] = test: fitness (endpoint OD595 vs no drug) (fraction); higher = more growth
Method in brief: (§2)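 In 384-well plates at 37 °C, cultures began at OD595 0.01 in 30 µl, with 55 µl used for S. pneumoniae. OD595 readings every 30 min for 14 h were corrected by the first reading. Fitness divides the stationary-phase transition optical density by the robust mean of no-drug control wells. The result is capped at 1.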

S. aureus DSM 20231 [5] = test: as above
Method in brief: as §2

S. aureus Newman [6] = test: as above
Method in brief: as §2
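Wherever Bliss interaction score (quartile over a dose matrix) is given: first quartile when negative (synergy) and third quartile when positive (antagonism).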

CCC[C@@H]1C[C@@H](C(=O)N[C@@H]([C@H]2O[C@H](SC)[C@H](O)[C@@H](O)[C@H]2O)[C@H](C)Cl)N(C)C1 [Clindamycin] + CN[C@H](CC(C)C)C(=O)N[C@H]1C(=O)N[C@@H](CC(N)=O)C(=O)N[C@H]2C(=O)N[C@H]3C(=O)N[C@H](C(=O)N[C@H](C(=O)O)c4cc(O)cc(O)c4-c4cc3ccc4O)[C@H](O)c3ccc(c(Cl)c3)Oc3cc2cc(c3O[C@@H]2O[C@H](CO)[C@@H](O)[C@H](O)[C@H]2O[C@H]2C[C@](C)(N)[C@H](O)[C@H](C)O2)Oc2ccc(cc2Cl)[C@H]1O [Vancomycin]
Conditions	Bliss interaction score
B. subtilis 168	0.0503
S. aureus DSM 20231 [2]	0.0292
S. aureus Newman [3]	0.135
S. pneumoniae D39V [1]	0.111

Conditions	fitness
S. aureus DSM 20231 [5], first compound 0.125 µg/mL, partner 0.1875 µg/mL	0.0642
S. aureus DSM 20231 [5], first compound 0.125 µg/mL, partner 0.375 µg/mL	0.0657
S. aureus DSM 20231 [5], first compound 0.125 µg/mL, partner 0.75 µg/mL	0.0731
S. aureus Newman [6], first compound 0.0312 µg/mL, partner 0.1875 µg/mL	0.764
S. aureus Newman [6], first compound 0.0312 µg/mL, partner 0.375 µg/mL	0.761
S. aureus Newman [6], first compound 0.0312 µg/mL, partner 0.75 µg/mL	0.762
S. pneumoniae D39V [4], first compound 0.0125 µg/mL, partner 0.125 µg/mL	0.782
S. pneumoniae D39V [4], first compound 0.0125 µg/mL, partner 0.25 µg/mL	0.702
S. pneumoniae D39V [4], first compound 0.0125 µg/mL, partner 0.5 µg/mL	0.0792
S. pneumoniae D39V [4], first compound 0.015 µg/mL, partner 0.03125 µg/mL	0.89
S. pneumoniae D39V [4], first compound 0.015 µg/mL, partner 0.0625 µg/mL	0.844
S. pneumoniae D39V [4], first compound 0.015 µg/mL, partner 0.125 µg/mL	0.63
S. pneumoniae D39V [4], first compound 0.025 µg/mL, partner 0.125 µg/mL	0.544
S. pneumoniae D39V [4], first compound 0.025 µg/mL, partner 0.25 µg/mL	0.47
S. pneumoniae D39V [4], first compound 0.025 µg/mL, partner 0.5 µg/mL	0.0715
S. pneumoniae D39V [4], first compound 0.03 µg/mL, partner 0.03125 µg/mL	0.738
S. pneumoniae D39V [4], first compound 0.03 µg/mL, partner 0.0625 µg/mL	0.7
S. pneumoniae D39V [4], first compound 0.03 µg/mL, partner 0.125 µg/mL	0.526
S. pneumoniae D39V [4], first compound 0.05 µg/mL, partner 0.125 µg/mL	0.296
S. pneumoniae D39V [4], first compound 0.05 µg/mL, partner 0.25 µg/mL	0.237
S. pneumoniae D39V [4], first compound 0.05 µg/mL, partner 0.5 µg/mL	0.0635
S. pneumoniae D39V [4], first compound 0.06 µg/mL, partner 0.03125 µg/mL	0.501
S. pneumoniae D39V [4], first compound 0.06 µg/mL, partner 0.0625 µg/mL	0.47
S. pneumoniae D39V [4], first compound 0.06 µg/mL, partner 0.125 µg/mL	0.327

CCC[C@@H]1C[C@@H](C(=O)N[C@@H]([C@H]2O[C@H](SC)[C@H](O)[C@@H](O)[C@H]2O)[C@H](C)Cl)N(C)C1 [Clindamycin] + Cn1nnc(-c2ccc(-c3ccc(N4C[C@H](CO)OC4=O)cc3F)cn2)n1 [Tedizolid]
Conditions	Bliss interaction score
B. subtilis 168	0.134
S. aureus DSM 20231 [2]	-0.024
S. aureus Newman [3]	-0.0925
S. pneumoniae D39V [1]	0.115

fitness
Conditions	partner 0.03125 µg/mL	partner 0.0625 µg/mL	partner 0.125 µg/mL	partner 0.25 µg/mL	partner 0.5 µg/mL
S. aureus DSM 20231 [5], first compound 0.0312 µg/mL	–	–	–	0.314	–
S. aureus DSM 20231 [5], first compound 0.0625 µg/mL	–	0.0876	0.0753	0.0709	–
S. aureus DSM 20231 [5], first compound 0.125 µg/mL	–	0.0391	0.0406	0.0164	–
S. aureus Newman [6], first compound 0.125 µg/mL	–	0.0736	0.0453	0.0444	–
S. pneumoniae D39V [4], first compound 0.0125 µg/mL	–	–	0.551	0.434	0.201
S. pneumoniae D39V [4], first compound 0.015 µg/mL	0.901	0.918	0.778	–	–
S. pneumoniae D39V [4], first compound 0.025 µg/mL	–	–	0.375	0.33	0.149
S. pneumoniae D39V [4], first compound 0.03 µg/mL	0.781	0.814	0.721	–	–
S. pneumoniae D39V [4], first compound 0.05 µg/mL	–	–	0.224	0.166	0.097
S. pneumoniae D39V [4], first compound 0.06 µg/mL	0.641	0.646	0.605	–	–

O=C(O[C@@H]1Cc2c(O)cc(O)cc2O[C@@H]1c1cc(O)c(O)c(O)c1)c1cc(O)c(O)c(O)c1 [EGCG] + CCCCCCCCCC(=O)N[C@@H]1[C@H]([C@@H]([C@H](O[C@H]1OC2=C3C=C4C=C2OC5=C(C=C(C=C5)[C@H]([C@H]6C(=O)N[C@@H](C7=C(C(=CC(=C7)O)OC8[C@H]([C@H]([C@@H]([C@H](O8)CO)O)O)O)C9=C(C=CC(=C9)[C@H](C(=O)N6)NC(=O)[C@@H]4NC(=O)[C@@H]1C2=CC(=CC(=C2)OC2=C(C=CC(=C2)[C@H](C(=O)N[C@H](CC2=CC(=C(O3)C=C2)Cl)C(=O)N1)N)O)O)O)C(=O)O)O[C@H]1[C@@H]([C@H]([C@@H]([C@H](O1)CO)O)O)NC(=O)C)Cl)CO)O)O [Teicoplanin]
main component drawn
Conditions	Bliss interaction score
B. subtilis 168	-0.096
S. aureus DSM 20231 [2]	0.125
S. aureus Newman [3]	0.0918
S. pneumoniae D39V [1]	0.0672

fitness, main component drawn
Conditions	first compound 12.5 µg/mL	first compound 25 µg/mL	first compound 50 µg/mL
S. aureus DSM 20231 [5], partner 0.1562 µg/mL	0.846	0.833	0.892
S. aureus DSM 20231 [5], partner 0.3125 µg/mL	0.957	0.968	0.959
S. aureus DSM 20231 [5], partner 0.625 µg/mL	0.935	≥ 1	–
S. aureus Newman [6], partner 0.1562 µg/mL	0.833	0.805	0.749
S. aureus Newman [6], partner 0.3125 µg/mL	0.716	0.824	0.698
S. aureus Newman [6], partner 0.625 µg/mL	0.819	0.806	0.823

fitness, S. aureus Newman [6], one replicate, main component drawn
Conditions	first compound 12.5 µg/mL	first compound 25 µg/mL	first compound 50 µg/mL
partner 0.62 µg/mL	0.62	0.662	0.558
partner 1.24 µg/mL	0.646	0.604	0.565
partner 2.48 µg/mL	0.538	0.51	0.475
